Laboratory results as given in patent publication US20090227619A1, “Harmine derivatives, intermediates used in their preparations, preparation processes and use therefo” (priority 2003, published 2009).
Read-outs that look alike come from different tables or passages of the source.

Key:
BGC-823 = assay: In vitro cytotoxicity, IC50 by MTT method, BGC-823; assay type: cell-based
Method: (§1) Culture medium powder RPMI1640 was dissolved in a proper amount of tri-distilled water according to the instruction of the product. […] It was the basic culture solution. The complete culture solution was added with FBS having a final concentration of 10%, 100 U/ml penicillin and 100 µg/ml streptomycin. The solution was fully stirred by a magnetic blender, and the pH of the solution was adjusted to 6.8-7.0. The volume was kept constant. After being filtered and disinfected, the solution was kept into several containers which were sealed and stored at 4° C.
(§2) The cells were placed in a culture dish followed by the addition of complete culture liquid RPMI1640 and then cultured in a incubator comprising 5% CO2 at 37° C. In the exponential growth phase, the cells grew vigorously. If the culture liquid became yellow, the liquid should be replaced instantly.
(§3) The cells, at a concentration of 10^5/ml, were inoculated at a 96-pore culture plate. In each pore, 100 μl cells were inoculated. The cells were placed in a CO2 incubator until the cells were in the logarithmic growth phase. The samples to be tested were added according to the preset concentration gradient. For each gradient, the test was conducted at least three times. An equivalent amount of solvent for dissolving the samples was added in the control group. After 48 h of culture, each pore was added 20 μl MTT (5 mg/ml). The cells were cultured at 37° C. for 4 h. After the supernatant was carefully removed, 100 μl DMSO was added in each pore. The plate was agitated for about 10 minutes such that the precipitates were dissolved. After that, OD value was identified with a Microplate Reader at the wavelength of 490 nm. The survival rate of the cells at various concentrations was calculated according to the following formula:
(§4) Survival rate %=average OD value of the sample group/average OD value of the control group×100%
(§5) Plots of log survival rate of the cells vs. concentration of the medicament were constructed, and the IC50 value of each sample was calculated according to graphing methods.

Bel-7402 = assay: In vitro cytotoxicity, IC50 by MTT method, Bel-7402; assay type: cell-based
Method: as §1, §2, §3, §4, §5

HepG2 = assay: In vitro cytotoxicity, IC50 by MTT method, HepG2; assay type: cell-based, human
Method: as §1, §2, §3, §4, §5

NIH3T3 = assay: In vitro cytotoxicity, IC50 by MTT method, NIH3T3; assay type: cell-based
Method: as §1, §2, §3, §4, §5

PLA-801 = assay: In vitro cytotoxicity, IC50 by MTT method, PLA-801; assay type: cell-based
Method: as §1, §2, §3, §4, §5

Lovo = assay: In vitro cytotoxicity, IC50 by MTT method, Lovo; assay type: cell-based
Method: as §1, §2, §3, §4, §5

Hela = assay: In vitro cytotoxicity, IC50 by MTT method, Hela; assay type: cell-based
Method: as §1, §2, §3, §4, §5

S180 sarcoma = settings: S180 sarcoma; for Body weight of the animals, beginning, First time / Body weight of the animals, end, First time / Inhibition rate, First time / Weight of the tumor X ± SD, First time: ip × 10qd
From the text: There was one group of 8 to 10 mice C57BL/6 and Kunming mice for the anti-tumor tests and two groups of mice for negative control.
(3) Sources of tumors: Lewis lung cancer cells and S180 sarcoma in mice, which were sub-cultured and maintained by Pharmacological Center of Shanghai Pharmaceutical Industrial Research Institute.
All samples were weighed and added a small amount of Tween-80 to facilitate dissolution during the experiment, and then 0.5% CMC-Na solution was gradually added to achieve the desired concentration. The volume for experiment was 0.5 ml/20 g mouse.
The medicaments were intraperitoneally administered once a day continuously for 10 days.
For the negative control group, a vehicle of the same volume was intraperitoneally administered once a day continuously for 10 days. For the positive control group, CTX was administered in the dosage of 30 mg/kg once a day continuously for 7 days.
In vivo anti-tumor subcutaneous vaccination in the axilla was employed. Wildly grown tumor source was taken under sterile conditions to form a cell suspension of about 1×10^7 ml by homogenization method. For a corresponding mouse host, the suspension was injected in the axilla in an amount of 0.2 ml/mouse. The next day, the medicaments were administered according to the design of the tests. About three weeks later, all the groups of animals were executed. The tumors were taken from the animals and weighed. The inhibition rate of tumors was calculated according to the following formula:
T: average tumor weight of treated group; C: average tumor weight of negative control group.

Lewis lung cancer = settings: Lewis lung cancer;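 further: mice implanted subcutaneously in the axilla with Lewis lung tumor cells, treated starting the following day, killed roughly three weeks after implantation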
[1] = BGC823 cell strain, read-out: IC50 BGC823
[2] = Bel7402 cell strain, read-out: IC50 Bel7402
[3] = HepG2 cell strain, read-out: IC50 HepG2
[4] = NIH3T3 cell strain, read-out: IC50 NIH3T3
[5] = PLA-801 cell strain, read-out: IC50 PLA-801
[6] = Lovo cell strain, read-out: IC50 Lovo
[7] = Hela cell strain, read-out: IC50 Hela
[8] = Homo sapiens, BGC-823, BGC823, MTT, read-out: IC50
[9] = Homo sapiens, Bel-7402, BeI7402, MTT, read-out: IC50
[10] = Homo sapiens, HepG2, MTT, read-out: IC50
[11] = Mus musculus, NIH3T3, MTT, read-out: IC50
[12] = Homo sapiens, Lovo, MTT, read-out: IC50
[13] = Homo sapiens, Hela, MTT, read-out: IC50
[14] = Dosage 50, ip × 10qd, first time
[15] = Dosage 100, ip × 10qd, first time

2,9-dibenzyl-β-carbolinium bromate [Compound 89]
IC50 (BGC-823; [1]): 60 µM | IC50 (Bel-7402; [2]): 70 µM | IC50 (HepG2; [3]): 30 µM | IC50 (NIH3T3; [4]): 30 µM | IC50 (PLA-801; [5]): 100 µM | IC50 (Lovo; [6]): 30 µM | IC50 (Hela; [7]): 20 µM

2,9-diethyl-β-carbolinium bromate [Compound 88]
IC50 (BGC-823; [1]): 1310 µM | IC50 (Bel-7402; [2]): 1310 µM | IC50 (HepG2; [3]): 430 µM | IC50 (NIH3T3; [4]): 630 µM | IC50 (PLA-801; [5]): 1200 µM | IC50 (Lovo; [6]): 2150 µM | IC50 (Hela; [7]): 860 µM

2,9-dimethyl-β-carbolinium bromate [Compound 87]
IC50 (BGC-823; [1]): 260 µM | IC50 (Bel-7402; [2]): 370 µM | IC50 (HepG2; [3]): 200 µM | IC50 (NIH3T3; [4]): 380 µM | IC50 (PLA-801; [5]): 280 µM | IC50 (Lovo; [6]): 1820 µM | IC50 (Hela; [7]): 70 µM

COc1ccc2c3ccnc(C)c3n(CCCc3ccccc3)c2c1 [Compound 8, 9-phenylpropyl-7-methoxy-1-methyl-β-carboline]
IC50 (BGC-823; [8]): 50 µM | IC50 (Bel-7402; [9]): 40 µM | IC50 (HepG2; [10]): 40 µM | IC50 (NIH3T3; [11]): 20 µM | IC50 (PLA-801; PLA-801, MTT, read-out: IC50): 50 µM | IC50 (Lovo; [12]): 30 µM | IC50 (Hela; [13]): 20 µM

COC(=O)c1cc2c(cn1)[nH]c1ccccc12 [Compound 9, methyl β-carboline-3-carboxylate]
IC50 (BGC-823; Homo sapiens, BGC-823): 290 µM | IC50 (Bel-7402; Homo sapiens, Bel-7402): 300 µM | IC50 (HepG2; Homo sapiens, HepG2): 2510 µM | IC50 (NIH3T3; Mus musculus, NIH3T3): 200 µM | IC50 (PLA-801): 310 µM | IC50 (Lovo; Homo sapiens, LoVo): 170 µM | IC50 (Hela; Homo sapiens, HeLa): 100 µM

CCOC(=O)c1cc2c(cn1)[nH]c1ccccc12 [Compound 10, ethyl β-carboline-3-carboxylate]
IC50 (BGC-823; Homo sapiens, BGC-823): 1280 µM | IC50 (Bel-7402; Homo sapiens, Bel-7402): 2910 µM | IC50 (HepG2; Homo sapiens, HepG2): 1250 µM | IC50 (NIH3T3; Mus musculus, NIH3T3): 80 µM | IC50 (PLA-801): 280 µM | Body weight of the animals, beginning, First time (S180 sarcoma; Dosage 50 (mg/ml)): 20.0 g | Body weight of the animals, end, First time (S180 sarcoma; Dosage 50 (mg/ml)): 26.4 g | Inhibition rate, First time (S180 sarcoma; Dosage 50 (mg/ml)): 30.92% | Weight of the tumor X ± SD, First time (S180 sarcoma; Dosage 50 (mg/ml)): 1.81 ± 0.20 g | Body weight of the animals, beginning, First time (S180 sarcoma; Dosage 100 (mg/ml)): 20.1 g | Body weight of the animals, end, First time (S180 sarcoma; Dosage 100 (mg/ml)): 25.5 g | Inhibition rate, First time (S180 sarcoma; Dosage 100 (mg/ml)): 40.46% | Weight of the tumor X ± SD, First time (S180 sarcoma; Dosage 100 (mg/ml)): 1.56 ± 0.17 g | Inhibition rate (%) S180 sarcomata (S180 sarcoma; comparison table 43, in vivo): 40.46% | Body weight of the animals, beginning, First time (Lewis lung cancer; [14]): 20.1 g | Inhibition rate, First time (Lewis lung cancer; [14]): 32.92% | Weight of the tumor X ± SD, First time (Lewis lung cancer; [14]): 1.63 ± 0.16 g | Body weight of the animals, end, First time (Lewis lung cancer; Dosage 100 (mg/ml), ip × 10qd, first time): 23.6 g | Body weight of the animals, beginning, First time (Lewis lung cancer; [15]): 20.3 g | Inhibition rate, First time (Lewis lung cancer; [15]): 41.98% | Weight of the tumor X ± SD, First time (Lewis lung cancer; [15]): 1.41 ± 0.21 g | Inhibition rate (%) Lewis cancer (Lewis lung cancer; comparison table 43, in vivo): 41.98% | IC50 (Lovo; Homo sapiens, LoVo): 1010 µM | IC50 (Hela; Homo sapiens, HeLa): 60 µM

CCCCOC(=O)c1cc2c(cn1)[nH]c1ccccc12 [Compound 18, butyl β-carboline-3-carboxylate]
IC50 (BGC-823; [8]): 390 µM | IC50 (Bel-7402; [9]): 310 µM | IC50 (HepG2; [10]): 270 µM | IC50 (NIH3T3; [11]): 150 µM | IC50 (PLA-801; PLA-801, MTT, read-out: IC50): 680 µM | IC50 (Lovo; [12]): 100 µM | IC50 (Hela; [13]): 290 µM

NNC(=O)c1cc2c(cn1)[nH]c1ccccc12 [Compound 20, β-carboline-3-carbohydrazine]
IC50 (BGC-823; BGC823, MTT, read-out: IC50): 740 µM | IC50 (Bel-7402; BeI7402, MTT, read-out: IC50): 1430 µM | IC50 (HepG2; HepG2, MTT, read-out: IC50): 360 µM | IC50 (NIH3T3; NIH3T3, MTT, read-out: IC50): 320 µM | IC50 (PLA-801; PLA-801, MTT, read-out: IC50): 740 µM | IC50 (Lovo; Lovo, MTT, read-out: IC50): 310 µM | IC50 (Hela; Hela, MTT, read-out: IC50): 400 µM
